According to patent publication US10426762B2, “Inhibitors of hepatitis C virus polymerase” (COCRYSTAL DISCOVERY, INC., priority 2012, dated 2019):
pEC50, pIC50: −log10 of the molar value.

target: T1, HCV1b NS5B polymerase delta 21 (Hepatitis C virus genotype 1b, UniProt P26663); assay: RNA-dependent RNA HCV NS5B (polymerase) assay and IC50 determination; format: biochemical; conditions: not given
T1 construct: purified HCV1b NS5B polymerase delta 21
Method: Example 212—RNA-Dependent RNA HCV NS5B (Polymerase) Assay and IC50 Determination
In vitro RNA-dependent RNA polymerase activity was determined in a reaction mixture (50 μL) containing 50 mM Tris-HCl, pH 7.5, 5 mM MgCl2, 1 mM dithiothreitol, 0.5% Triton® X-100, 10 μM of UTP, 0.1-0.5 μCi of α-^32P UTP (Perkin Elmer Life Sciences), 1 μg of polyA:U16 (Midland Oligo), and 0.6 μg of purified HCV1b NS5B polymerase delta 21. Different concentrations of compounds were added to the reaction mixtures. The reaction was carried out at RT (23° C.) for 60 min and then stopped by the addition of 100 μL of 50 mM EDTA. The reaction mixtures were filtered through either a DE81 membrane or a positively charged nylon membrane, and the membranes were then extensively washed with 30 mM sodium citrate, pH 7.0 and 300 mM NaCl. The radiolabeled RNA products were quantitated using a Storm™ PhosphorImager™ (GE life Sciences). IC50 values were calculated using GraFit 6 and GraphPad Prism 5 from triplicate assays.

T1 sequence (P26663 2420-2989): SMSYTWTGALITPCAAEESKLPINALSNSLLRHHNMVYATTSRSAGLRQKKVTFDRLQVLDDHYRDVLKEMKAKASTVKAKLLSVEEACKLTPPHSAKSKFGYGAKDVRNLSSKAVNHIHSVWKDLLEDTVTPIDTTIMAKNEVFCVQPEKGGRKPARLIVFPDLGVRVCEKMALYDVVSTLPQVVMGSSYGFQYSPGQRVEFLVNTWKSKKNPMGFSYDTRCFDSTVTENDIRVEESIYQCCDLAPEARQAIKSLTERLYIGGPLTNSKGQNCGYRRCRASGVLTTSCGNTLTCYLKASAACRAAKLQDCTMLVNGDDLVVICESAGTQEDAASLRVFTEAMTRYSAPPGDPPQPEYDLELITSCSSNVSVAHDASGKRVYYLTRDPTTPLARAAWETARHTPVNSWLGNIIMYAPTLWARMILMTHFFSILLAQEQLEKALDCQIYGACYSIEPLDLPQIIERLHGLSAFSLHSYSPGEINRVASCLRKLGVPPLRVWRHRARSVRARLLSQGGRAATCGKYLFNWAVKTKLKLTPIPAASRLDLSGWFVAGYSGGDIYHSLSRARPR

Q: With `COc1cc(-c2cc(C3=C(C4CCC(C)CC4)CN(C)CC3)c(C(=O)O)s2)ccc1NC(=O)c1cscn1` (centres unmarked) [Example 179, 5-(3-methoxy-4-(thiazole-4-carboxamido)phenyl)-3-(1-methyl-5-(4-methylcyclohexyl)-1,2,3,6-tetrahydropyridin-4-yl)thiophene-2-carboxylic acid] as the compound, how does the pIC50 read?
A: Its pIC50 is > 5.52.

Q: `CCc1cc(-c2cc(C3=C(C4CCC(C)CC4)CN(C)CC3)c(C(=O)O)s2)ccc1NC(=O)c1cscn1` (centres unmarked) [Example 181, 5-(3-ethyl-4-(thiazole-4-carboxamido)phenyl)-3-(1-methyl-5-(4-methylcyclohexyl)-1,2,3,6-tetrahydropyridin-4-yl)thiophene-2-carboxylic acid] was tested. Which pIC50 did it give?
A: Its pIC50 is > 5.52.

Q: With `CC1CCC(C2=C(c3cc(-c4ccc(NC(=O)c5cscn5)c(Cl)c4)sc3C(=O)O)CCN(C)C2)CC1` (centres unmarked) [Example 182, 5-(3-chloro-4-(thiazole-4-carboxamido)phenyl)-3-(1-methyl-5-(4-methylcyclohexyl)-1,2,3,6-tetrahydropyridin-4-yl)thiophene-2-carboxylic acid] as the compound, how does the pIC50 read?
A: Its pIC50 is > 5.52.

Q: With `COc1ccn2nc(-c3ccc(-c4cc(C5=C(C6CCC(C)CC6)CN(C)CC5)c(C(=O)O)s4)cc3)cc2n1` (centres unmarked) [Example 184, 5-(4-(5-methoxypyrazolo[1,5-a]pyrimidin-2-yl)phenyl)-3-(1-methyl-5-(4-methylcyclohexyl)-1,2,3,6-tetrahydropyridin-4-yl)thiophene-2-carboxylic acid] as the compound, how does the pIC50 read?
A: The pIC50 was > 5.52.

Q: How did the pIC50 turn out when `CC1CCC(C2=C(c3cc(-c4ccc(NC(=O)c5cscn5)cc4)sc3C(=O)O)CCN(Cc3cnn(C)c3)C2)CC1` (centres unmarked) [Example 186, 3-(1-((1-methyl-1H-pyrazol-4-yl)methyl)-5-(4-methylcyclohexyl)-1,2,3,6-tetrahydropyridin-4-yl)-5-(4-(thiazole-4-carboxamido)phenyl)thiophene-2-carboxylic acid] was run?
A: The pIC50 was > 5.52.

Q: `Cc1cc(-c2cc(C3=C(C4CCC(C)CC4)CN(C)CC3)c(C(=O)O)s2)ccc1-c1cc2ncccn2n1` (centres unmarked) [Example 187, 5-(3-methyl-4-(pyrazolo[1,5-a]pyrimidin-2-yl)phenyl)-3-(1-methyl-5-(4-methylcyclohexyl)-1,2,3,6-tetrahydropyridin-4-yl)thiophene-2-carboxylic acid] was tested. Which pIC50 did it give?
A: The pIC50 was > 5.52.

Q: With `CC1CCC(C2=C(c3cc(-c4ccc(NC(=O)c5cscn5)cc4)sc3C(=O)O)CN(CC3COC(C)(C)O3)CC2)CC1` (centres unmarked) [Example 189, 3-(1-((2,2-dimethyl-1,3-dioxolan-4-yl)methyl)-4-(4-methylcyclohexyl)-1,2,5,6-tetrahydropyridin-3-yl)-5-(4-(thiazole-4-carboxamido)phenyl)thiophene-2-carboxylic acid] as the compound, how does the pIC50 read?
A: The pIC50 was > 5.52.

system: HCV1b replicon; assay: HCV replicon assay (Huh-7 cell line with HCV1b replicon containing luciferase reporter) and EC50 determination; format: cell-based; conditions: Hepatitis C virus; Table 1; Huh-7 HCV1b replicon luciferase reporter, 72 hr, triplicate
Method: Example 213—HCV Replicon Assay and EC50 Determination
The antiviral activity of compounds against hepatitis C virus was determined by a hepatitis C virus replicon reporter cell line developed by Bartenschlager (Lohmann et al., Science 1999, 285:110-113; Bartenschlager et al., Antiviral Res 2003, 60:91-102). This cell-based assay utilized a liver cell carcinoma (Huh-7) cell line stably transformed with an HCV1b replicon containing a luciferase reporter gene. Varied concentrations of compounds were added to the reporter cell line, and further incubated at 37° C. for 72 hr in DMEM supplemented with 10% FCS. The inhibitory effects of experimental compounds or the reference compound, interferon alpha (INFα), on HCV replication were measured by luciferase activity using the Britelite™ plus luminescence reporter gene kit (Perkin Elmer, Shelton, Conn.). The Britelite plus reagent was added to the 96-well plates containing the HCV reporter cells, and luminescence was measured within 15 min using a Wallac 1450 Microbeta® Trilux liquid scintillation counter. EC50 values were calculated using GraFit 6 and GraphPad Prism 5 from triplicate HCV replicon assays.

Q: With `Cc1cc(-c2cc(C3=C(C4CCC(C)CC4)CN(C)CC3)c(C(=O)O)s2)ccc1NC(=O)c1cscn1` (centres unmarked) [Example 178, 5-(3-methyl-4-(thiazole-4-carboxamido)phenyl)-3-(1-methyl-5-(4-methylcyclohexyl)-1,2,3,6-tetrahydropyridin-4-yl)thiophene-2-carboxylic acid] as the compound, how does the pEC50 read?
A: The pEC50 was > 5.52.

Q: How did the pEC50 turn out when `CC1CCC(C2=C(c3cc(-c4ccc(NC(=O)c5cscn5)c(C#N)c4)sc3C(=O)O)CCN(C)C2)CC1` (centres unmarked) [Example 180, 5-(3-cyano-4-(thiazole-4-carboxamido)phenyl)-3-(1-methyl-5-(4-methylcyclohexyl)-1,2,3,6-tetrahydropyridin-4-yl)thiophene-2-carboxylic acid] was run?
A: The pEC50 was > 5.52.

Q: How did the pEC50 turn out when `CC1CCC(C2=C(c3cc(-c4ccc(NC(=O)c5cscn5)c(C(F)(F)F)c4)sc3C(=O)O)CCN(C)C2)CC1` (centres unmarked) [Example 183, 3-(1-methyl-5-(4-methylcyclohexyl)-1,2,3,6-tetrahydropyridin-4-yl)-5-(4-(thiazole-4-carboxamido)-3-(trifluoromethyl)phenyl)thiophene-2-carboxylic acid] was run?
A: The pEC50 was > 5.52.

Q: `CC1CCC(C2=C(c3cc(-c4ccc(-c5cc6n(C)c(=O)ccn6n5)cc4)sc3C(=O)O)CCN(C)C2)CC1` (centres unmarked) [Example 185, 3-(1-methyl-5-(4-methylcyclohexyl)-1,2,3,6-tetrahydropyridin-4-yl)-5-(4-(4-methyl-5-oxo-4,5-dihydropyrazolo[1,5-a]pyrimidin-2-yl)phenyl)thiophene-2-carboxylic acid] was tested. Which pEC50 did it give?
A: Its pEC50 is > 5.52.

Q: With `Cc1cc(-c2cc(C3=C(C4CCC(C)CC4)CCN(C)C3)c(C(=O)O)s2)ccc1NC(=O)c1cscn1` (centres unmarked) [Example 196, 3-(1-methyl-4-(4-methylcyclohexyl)-1,2,5,6-tetrahydropyridin-3-yl)-5-(3-methyl-4-(thiazole-4-carboxamido)phenyl)thiophene-2-carboxylic acid] as the compound, how does the pEC50 read?
A: The pEC50 was > 5.52.

Q: How did the pEC50 turn out when `Cc1cc(-c2cc(C3=C(C4CCC(C)CC4)CCN(CCO)C3)c(C(=O)O)s2)ccc1NC(=O)c1cscn1` (centres unmarked) [Example 197, 3-(1-(2-hydroxyethyl)-4-(4-methylcyclohexyl)-1,2,5,6-tetrahydropyridin-3-yl)-5-(3-methyl-4-(thiazole-4-carboxamido)phenyl)thiophene-2-carboxylic acid] was run?
A: The pEC50 was > 5.52.

Q: With `CN1CCC(c2cc(-c3ccc(NC(=O)c4cscn4)cc3)sc2C(=O)O)=C(c2ccc(Cl)cc2Cl)C1` [Example 201, 3-(5-(2,4-dichlorophenyl)-1-methyl-1,2,3,6-tetrahydropyridin-4-yl)-5-(4-(thiazole-4-carboxamido)phenyl)thiophene-2-carboxylic acid] as the compound, how does the pEC50 read?
A: Its pEC50 is > 5.52.

Q: With `Cc1ccc(C2=C(c3cc(-c4ccc(NC(=O)c5cscn5)cc4)sc3C(=O)O)CCN(C)C2)cc1` [Example 202, 3-(1-methyl-5-(p-tolyl)-1,2,3,6-tetrahydropyridin-4-yl)-5-(4-(thiazole-4-carboxamido)phenyl)thiophene-2-carboxylic acid] as the compound, how does the pEC50 read?
A: Its pEC50 is > 5.52.

Q: With `CC1CCC(C2=C(c3cc(-c4ccc(NC(=O)c5cscn5)nc4)sc3C(=O)O)CCN(C)C2)CC1` (centres unmarked) [Example 204, 3-(1-methyl-5-(4-methylcyclohexyl)-1,2,3,6-tetrahydropyridin-4-yl)-5-(6-(thiazole-4-carboxamido)pyridin-3-yl)thiophene-2-carboxylic acid] as the compound, how does the pEC50 read?
A: Its pEC50 is > 5.52.

same assay, conditions: Hepatitis C virus; Table 2; Huh-7 HCV1b replicon luciferase reporter, 72 hr, triplicate

Q: How did the pEC50 turn out when `CC1CCC(C2=C(c3cc(-c4ccc(NC(=O)c5cscn5)cc4)sc3C(=O)O)CN(CCO)CC2)CC1` (centres unmarked) [Example 188, 3-(1-(2-hydroxyethyl)-4-(4-methylcyclohexyl)-1,2,5,6-tetrahydropyridin-3-yl)-5-(4-(thiazole-4-carboxamido)phenyl)thiophene-2-carboxylic acid] was run?
A: Its pEC50 is > 5.52.

Q: With `CC1CCC(C2=C(c3cc(-c4ccc(-c5cc6ncccn6n5)cc4)sc3C(=O)O)CN(CCO)CC2)CC1` (centres unmarked) [Example 191, 3-(1-(2-hydroxyethyl)-4-(4-methylcyclohexyl)-1,2,5,6-tetrahydropyridin-3-yl)-5-(4-(pyrazolo[1,5-a]pyrimidin-2-yl)phenyl)thiophene-2-carboxylic acid] as the compound, how does the pEC50 read?
A: The pEC50 was > 5.52.

Q: `CC1CCC(C2=C(c3cc(-c4ccc(-c5cc6ncccn6n5)cc4)sc3C(=O)O)CN(CC(O)CO)CC2)CC1` (centres unmarked) [Example 192, 3-(1-(2,3-dihydroxypropyl)-4-(4-methylcyclohexyl)-1,2,5,6-tetrahydropyridin-3-yl)-5-(4-(pyrazolo[1,5-a]pyrimidin-2-yl)phenyl)thiophene-2-carboxylic acid] was tested. Which pEC50 did it give?
A: Its pEC50 is > 5.52.

Q: How did the pEC50 turn out when `CC1CCC(C2=C(c3cc(-c4ccc(NC(=O)c5cscn5)cc4)sc3C(=O)O)CN(Cc3cnn(C)c3)CC2)CC1` (centres unmarked) [Example 193, 3-(1-((1-methyl-1H-pyrazol-4-yl)methyl)-4-(4-methylcyclohexyl)-1,2,5,6-tetrahydropyridin-3-yl)-5-(4-(thiazole-4-carboxamido)phenyl)thiophene-2-carboxylic acid] was run?
A: The pEC50 was > 5.52.

Q: How did the pEC50 turn out when `CC1CCC(C2=C(c3cc(-c4ccc(-c5cc6ncccn6n5)cc4)sc3C(=O)O)CN(Cc3cnn(C)c3)CC2)CC1` (centres unmarked) [Example 194, 3-(1-((1-methyl-1H-pyrazol-4-yl)methyl)-4-(4-methylcyclohexyl)-1,2,5,6-tetrahydropyridin-3-yl)-5-(4-(pyrazolo[1,5-a]pyrimidin-2-yl)phenyl)thiophene-2-carboxylic acid] was run?
A: Its pEC50 is > 5.52.

Q: With `Cc1nn(C)cc1CN1CCC(C2CCC(C)CC2)=C(c2cc(-c3ccc(NC(=O)c4cscn4)cc3)sc2C(=O)O)C1` (centres unmarked) [Example 195, 3-(1-((1,3-dimethyl-1H-pyrazol-4-yl)methyl)-4-(4-methylcyclohexyl)-1,2,5,6-tetrahydropyridin-3-yl)-5-(4-(thiazole-4-carboxamido)phenyl)thiophene-2-carboxylic acid] as the compound, how does the pEC50 read?
A: The pEC50 was > 5.52.

Q: With `CN1CCC(c2cc(-c3ccc(NC(=O)c4cscn4)cc3)sc2C(=O)O)=C(C2CCCCC2)C1` [Example 205, 3-(5-Cyclohexyl-1-methyl-1,2,3,6-tetrahydro-pyridin-4-yl)-5-{4-[(thiazole-4-carbonyl)-amino]-phenyl}-thiophene-2-carboxylic acid] as the compound, how does the pEC50 read?
A: The pEC50 was > 5.52.
